Data reported in patent US9266835B2, “Quinoline derivatives useful as CB-1 inverse agonists” (JANSSEN PHARMACEUTICA NV, priority 2014, dated 2016).

Assays:
[1] = biological target: Human CB1R (Cannabinoid receptor 1) (Homo sapiens (Human), UniProt P21554); assay: CB-1 in vitro cAMP assay (HTRF), inverse agonism; type: cell-based; settings: mean where tested more than once
Excerpt: (§1) CB1 and CB2 receptors are Gi-coupled GPCR. Activation of CB1 and CB2 receptors results in a decrease in cAMP production. An inverse agonist of the CB1 or CB2 receptor results in the opposite effect, an increase of cAMP production. The principle of this assay is based on HTRF® technology (Homogeneous Time-Resolved Fluorescence). The method is a competitive immunoassay between native cAMP produced by cells and the cAMP labeled with the fluorophore d2. The tracer binding is quantified by a Mab anti-cAMP labeled with Eu3+TBP-NHS Cryptate (supplied as part of the assay kit). The specific signal (i.e. energy transfer) is inversely proportional to the concentration of cAMP in the standard or sample.
(§2) Human CB1R (Cannabinoid receptor 1) was stably transfected in HEK-293 cells (DiscoveRx, cat: 93-0200C1). Human CB2R (Cannabinoid receptor 2) was stably transfected in HEK-293 cells (DiscoveRx, cat: 93-0201C1). Cell cultures were maintained in media: DMEM (Invitrogen Cat#12430-054) supplemented with 10% HI FBS (Invitrogen Cat#16140-071), 1% L-glutamine (Invitrogen Cat#25030-081), 0.2 mg/ml Hygromycin B (Invitrogen Cat#10687-010), 600 μg/mL G418 (Invitrogen Cat#10131-035), and 1X Penn/Strep (Invitrogen 15140-122). After cell expansion, aliquots were cryo-stored in media containing 5% DMSO (Pierce Cat#20684).
(§3) One day prior to experiments media was warmed to 37° C. and the cryo-stored cells were thawed in a 37° C. water bath. The cells were then added to media (10× volume) and the mixture was centrifuged at 1000 RPM for 5 min. The supernate was removed and the cells were re-suspended in media. A sample of the cell suspension was evaluated on a Cedex XS automated cell counter (Innovatis Systems) to determine viable cells/ml. Additional media was added to the cells to achieve a final cell density of 4E5 cells/mL. The cells were then plated into 384 well PDL white solid bottom plates (Greiner, Cat#781945) at 20 μL per well using a Multidrop (Thermo Scientific). Cells were removed from Row P (location of cAMP standards). Two columns of cells were plated into a clear bottom 384 well PDL coated plate (Greiner, Cat#781944) to view confluence the day of the assay. The cell plates were lidded and stored for 15 minutes in a hood, then transferred to an incubator (37° C., 5% CO2, 95% humidity) overnight.
(§4) DMSO was added to all wells of 384 well V bottom polystyrene plate (Greiner, Cat#781280) except to columns 1 and 13, rows 0 and P and wells M13-M23 and N13-N23. Test compounds (60 μL, 10 mM) were added to Column 1 and 13 (A1 through N1 and A13 through L13). Test compounds were serially diluted 1/3 by transferring and mixing 20 μl sample with 40 μL DMSO.
(§5) DMSO (40 μL) was added to wells of 384 well V bottom polystyrene plate: O2 through O11, M14 through M23, N14 through N23, and O14 through O23. AM630 (also known as [6-iodo-2-methyl-1-[2-(4-morpholinyl)ethyl]-1H-indol-3-yl](4-methoxyphenyl)-methanone, Cayman Chemical, Cat#10006974) (60 μL, 10 mM) was added to 01; and 1-(2,4-dichlorophenyl)-7-[(4-fluorophenyl)methylene]-4,5,6,7-tetrahydro-N-1-piperidinyl-1H-indazole-3-carboxamide (60 μL, 10 mM) was added to N13. The control was serially diluted 1/3 by transferring and mixing 20 μl sample with 40 μL DMSO. This process resulted 11 doses per control, 10 mM to […].
(§6) Cells plated the day prior to the assay in clear bottom plates were viewed on an inverse microscope to ensure confluency in the range of 60-75%. […]

[2] = biological target: Human CB2R (Cannabinoid receptor 2) (Homo sapiens (Human), UniProt P34972); assay: CB-2 in vitro cAMP assay (HTRF), inverse agonism; type: cell-based; settings: mean where tested more than once
Excerpt: as §1, §2, §3, §4, §5, §6

Chain of Human CB1R (Cannabinoid receptor 1) (P21554 whole entry): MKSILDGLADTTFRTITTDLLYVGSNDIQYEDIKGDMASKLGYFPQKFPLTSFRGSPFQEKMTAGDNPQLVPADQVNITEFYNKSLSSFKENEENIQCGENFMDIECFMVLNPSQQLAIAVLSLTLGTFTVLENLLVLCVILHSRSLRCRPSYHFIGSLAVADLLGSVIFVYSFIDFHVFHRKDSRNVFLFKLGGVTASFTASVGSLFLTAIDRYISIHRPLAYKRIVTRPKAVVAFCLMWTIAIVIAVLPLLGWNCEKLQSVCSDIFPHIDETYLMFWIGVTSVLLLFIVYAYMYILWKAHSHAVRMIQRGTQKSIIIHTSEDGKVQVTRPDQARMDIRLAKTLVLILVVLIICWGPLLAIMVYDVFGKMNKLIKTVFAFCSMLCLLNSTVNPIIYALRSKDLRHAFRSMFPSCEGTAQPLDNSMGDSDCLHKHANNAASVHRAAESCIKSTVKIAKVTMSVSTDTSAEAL
Chain of Human CB2R (Cannabinoid receptor 2) (P34972 whole entry): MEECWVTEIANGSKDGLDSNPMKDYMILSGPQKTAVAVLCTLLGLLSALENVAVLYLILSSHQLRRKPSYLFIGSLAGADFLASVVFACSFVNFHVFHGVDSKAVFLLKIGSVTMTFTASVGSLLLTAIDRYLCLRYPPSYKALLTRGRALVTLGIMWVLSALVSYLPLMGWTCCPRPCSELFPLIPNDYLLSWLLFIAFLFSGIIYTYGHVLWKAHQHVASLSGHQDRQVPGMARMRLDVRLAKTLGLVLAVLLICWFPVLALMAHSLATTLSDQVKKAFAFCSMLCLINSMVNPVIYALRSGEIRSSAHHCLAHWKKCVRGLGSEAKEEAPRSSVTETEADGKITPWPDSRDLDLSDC

EC50 [1] [nM] | EC50 [2] [nM] | Structure (SMILES)
108 | 2380 | O=C(O)CCCCOc1cc(C(c2ccc(Cl)cc2)c2ccc(Cl)cc2)cc2c(NC3CCN(S(=O)(=O)C(F)(F)F)CC3)ccnc12 [Compound 537, 5-((6-(bis(4-chlorophenyl)methyl)-4-((1-((trifluoromethyl)sulfonyl)piperidin-4-yl)amino)quinolin-8-yl)oxy)pentanoic acid]
3150 | > 10000 | NC(=O)c1ccc(Nc2cc(=O)[nH]c3ccc(C(c4ccc(Cl)cc4)c4ccc(Cl)cc4)cc23)cc1 [Compound 87, 4-({6-[Bis(4-chlorophenyl)methyl]-2-oxo-1,2-dihydroquinolin-4-yl}amino)benzamide]
12 | 180 | O=S(=O)(N1CCC(Nc2ccnc3c(Br)cc(C(c4ccc(Cl)cc4)c4ccc(Cl)cc4)cc23)CC1)C(F)(F)F [Compound 524, 6-(bis(4-chlorophenyl)methyl)-8-bromo-N-(1-((trifluoromethyl)sulfonyl)piperidin-4-yl)quinolin-4-amine]
242 | > 10000 | O=C(O)CCC(=O)N1CCC(Nc2cc(=O)[nH]c3ccc(C(c4ccc(Cl)cc4)c4ccc(Cl)cc4)cc23)CC1 [Compound 98, 4-(4-((6-(bis(4-chlorophenyl)methyl)-2-oxo-1,2-dihydroquinolin-4-yl)amino)piperidin-1-yl)-4-oxobutanoic acid]
52 | 670 | O=C1CCCN1c1cc(C(c2ccc(Cl)cc2)c2ccc(Cl)cc2)cc2c(NC3CCN(S(=O)(=O)C(F)(F)F)CC3)cc(=O)[nH]c12 [Compound 107, 6-(bis(4-chlorophenyl)methyl)-8-(2-oxopyrrolidin-1-yl)-4-((1-((trifluoromethyl)sulfonyl)piperidin-4-yl)amino)quinolin-2(1H)-one]
333 | > 10000 | O=c1cc(/C=C/c2cccc(C(F)(F)F)c2)c2cc(C(c3ccc(Cl)cc3)c3cccs3)ccc2[nH]1 (stereo not drawn) [Compound 26, 6-[(4-Chlorophenyl)(thiophen-2-yl)methyl]-4-{(E)-2-[3-(trifluoromethyl)phenyl]-ethenyl}quinolin-2(1H)-one]
1500 | > 10000 | CC(C)(C)OC(=O)N1CC=C(c2ccnc3ccc(C(c4ccc(Cl)cc4)c4nccs4)cc23)CC1 (stereo not drawn) [Compound 513, tert-butyl 4-(6-((4-chlorophenyl)(thiazol-2-yl)methyl)quinolin-4-yl)-5,6-dihydropyridine-1(2H)-carboxylate]
530 | 9700 | O=c1cc(NC2CCN(S(=O)(=O)C(F)(F)F)CC2)c2cc(C(O)(c3ccc(F)cc3)c3ccc(Cl)cc3)ccc2[nH]1 (stereo not drawn) [Compound 50, 6-[(4-Chlorophenyl)(4-fluorophenyl)hydroxymethyl]-4-({1-[(trifluoromethyl)sulfonyl]-piperidin-4-yl}amino)quinolin-2(1H)-one]
25 | > 10000 | O=c1cc(Nc2cccc(C(F)(F)F)c2)c2cc(C(c3ccc(Cl)cc3)c3ccc(Cl)cc3)ccc2[nH]1 [Compound 75, 6-[Bis(4-chlorophenyl)methyl]-4-{[3-(trifluoromethyl)phenyl]amino}-quinolin-2(1H)-one]
9700 | > 10000 | O=C(O)CN1CCC(Nc2cc(=O)[nH]c3ccc(C(c4ccc(Cl)cc4)c4ccc(Cl)cc4)cc23)CC1 [Compound 117, [4-({6-[Bis(4-chlorophenyl)methyl]-2-oxo-1,2-dihydroquinolin-4-yl}amino)piperidin-1-yl]acetic acid]
31 | 115 | COc1cc(NC2CCN(S(=O)(=O)C(F)(F)F)CC2)c2cc(C(c3ccc(Cl)cc3)c3ccc(Cl)cc3)cc(CCCO)c2n1 [Compound 550, 3-(6-(bis(4-chlorophenyl)methyl)-2-methoxy-4-((1-((trifluoromethyl)sulfonyl)piperidin-4-yl)amino)quinolin-8-yl)propan-1-ol]
8 | 1830 | COc1ccc(C(c2ccc(Cl)cc2)c2ccc3[nH]c(=O)cc(NC4CCN(S(=O)(=O)C(F)(F)F)CC4)c3c2)cc1 (stereo not drawn) [Compound #54, 6-((4-chlorophenyl)(4-methoxyphenyl)methyl)-4-((1-((trifluoromethyl)sulfonyl)piperidin-4-yl)amino)quinolin-2(1H)-one]
24 | > 10000 | Cn1c(=O)cc(NC2CCN(S(=O)(=O)C(F)(F)F)CC2)c2cc(C(c3ccc(Cl)cc3)c3ccc(Cl)cc3)ccc21 [Compound #49, 6-[bis(4-chlorophenyl)methyl]-1-methyl-4-[[1-(trifluoromethane)sulfonylpiperidin-4-yl]amino]-1,2-dihydroquinolin-2-one]
1280 | 6700 | O=C(O)COc1cc(NC2CCN(S(=O)(=O)C(F)(F)F)CC2)c2cc(C(c3ccc(Cl)cc3)c3ccc(Cl)cc3)ccc2n1 [Compound 532, ({6-[Bis(4-chlorophenyl)methyl]-4-({1-[(trifluoromethyl)sulfonyl]-piperidin-4-yl}amino)quinolin-2-yl}oxy)acetic acid]
2280 | > 10000 | O=c1cc(/C=C/c2ccccc2)c2cc(C(c3ccc(Cl)cc3)c3ccc(Cl)s3)ccc2[nH]1 (stereo not drawn) [Compound 31, 6-[(4-Chlorophenyl)(5-chlorothiophen-2-yl)methyl]-4-[(E)-2-phenylethenyl]quinolin-2(1H)-one]
6 | > 10000 | O=c1cc(NC2CCN(c3ccccn3)CC2)c2cc(C(c3ccc(Cl)cc3)c3ccc(Cl)cc3)ccc2[nH]1 [Compound 68, 6-[Bis(4-chlorophenyl)methyl]-4-[(1-pyridin-2-ylpiperidin-4-yl)amino]quinolin-2(1H)-one]
293 | 9700 | O=C(O)c1ccc(CN2CCC(Nc3cc(=O)[nH]c4ccc(C(c5ccc(Cl)cc5)c5ccc(Cl)cc5)cc34)CC2)s1 [Compound 128, 5-{[4-({6-[Bis(4-chlorophenyl)methyl]-2-oxo-1,2-dihydroquinolin-4-yl}amino)piperidin-1-yl]methyl}thiophene-2-carboxylic acid]
702 | 660 | O=c1cc(/C=C/c2cccc(F)c2)c2cc(C(c3ccc(Cl)cc3)c3ccc(Cl)cc3)ccc2[nH]1 [Compound 15, 6-[Bis(4-chlorophenyl)methyl]-4-[(E)-2-(3-fluorophenyl)ethenyl]quinolin-2(1H)-one]
75 | 4610 | O=c1cc(N[C@@H]2CCN(S(=O)(=O)C(F)(F)F)C2)c2cc(C(c3ccc(Cl)cc3)c3nccs3)ccc2[nH]1 (stereo partly drawn) [Compound 47, 6-[(4-Chlorophenyl)(1,3-thiazol-2-yl)methyl]-4-({(3R)-1-[(trifluoromethyl)sulfonyl]-pyrrolidin-3-yl}amino)quinolin-2(1H)-one]
191 | > 10000 | Clc1ccc(C(c2ccc(Cl)cc2)c2ccc3nccc(/C=C/c4ccccc4)c3c2)cc1 [Compound 503, (E)-6-(bis(4-chlorophenyl)methyl)-4-styrylquinoline]

Structure (SMILES) | EC50 [1] [nM] | EC50 [2] [nM]
CCOC(=O)CCCNc1cc(C(O)(c2ccc(Cl)cc2)c2ccc(Cl)cc2)cc2c(NC3CCN(S(=O)(=O)C(F)(F)F)CC3)cc(OC(C)(C)C)nc12 [Compound 529, Ethyl 4-({6-[bis(4-chlorophenyl)(hydroxy)methyl]-2-tert-butoxy-4-({1-[(trifluoromethyl)sulfonyl]-piperidin-4-yl}amino)quinolin-8-yl}amino)butanoate] | > 10000 | > 10000
